From patent publication US11517617B2, “Methods and compositions for preventing influenza infection” (THE UNIVERSITY OF MELBOURNE, priority 2017, dated 2022)

How the values were obtained:
[1] = test system: CD8^+ T cells; parameters: species or system HHD-A2 mice; conditions: mouse, in vivo
[2] = test system: CD8^+ T cells; experiment: In vitro screening and validation in HLA-A*02:01-expressing human PBMCs, CD8^+ T cell lines, IFNγ/TNF ICS; format: cell-based; conditions: for CD8^+ T cell response hierarchy of individual peptides: HLA-A*0201^+ donors, dissection of pools into individual peptides; for CD8^+ T cell response, median / donors with response: T cell lines towards individual peptides, n=6
Excerpt: As a next step, the IBV-specific CD8^+ T cell responses towards the 67 LC/MS-identified IBV-peptides in HLA-A*02:01-expressing individuals were dissected. CD8^+ T cell lines specific for each of the 6 peptide pools were established, and then re-stimulated cells with the cognate pool in an IFNγ/TNF ICS assay (FIG. 2f).
To validate these responses independently of the peptide pools, CD8^+ T cell lines were established towards individual immunogenic peptides (FIG. 2i). […] Thus, these thorough in vivo and in vitro analyses identified 5 novel peptides recognized by CD8^+ T cells in complex with the HLA-A*02:01 molecule, with BHA543-551 being immunodominant amongst the peptides tested, in both mice and humans.
Peripheral blood mononuclear cells (PBMC) from healthy A2:01+ donors were cultured in the presence of antigens (10 μM peptide) for 10 days in the presence of IL-2 (10 U/ml). On day 10 PBMCs were stimulated with peptides (1 μM) for 5 hours in the presence of BFA. Cells were surface stained for CD3 and CD8 and intracellularly stained for IFNγ and TNF using the BD cytofix/cytoperm kit according to the manufacturer's instructions (BD Biosciences).
Any pools with positive ICS responses were then dissected to their individual peptides.

[3] = test system: CD8^+ T cells; experiment: Recall responses in HHD-A2 mice primed with B/Malaysia and challenged with B/Phuket; format: in vivo; conditions: spleen d8 after B/Phuket challenge; not statistically significant
Excerpt: To further verify the immunogenicity of these epitopes in recall responses, HHD-A2 mice were primed i.n. with B/Malaysia, infected with the heterologous strain B/Phuket 6 weeks later and then assessed CD8^+ T cells against the main epitopes A2/BHA543-551 and A2/BNS1266-274 in the spleen on d8 after challenge.

[4] = test system: tetramer^+ CD8^+ T cells; experiment: Tetramer staining of IAV- or IBV-specific CD8^+ T cell lines established in vitro from healthy adult PBMC; format: cell-based, human; conditions: IBV-specific T cell lines, n=11
Excerpt: Conversely, the universal A2/PB1413 epitope within the IBV-specific T cell lines was immunodominant (0.3%; detected in 8/11 donors) over the IBV-specific A2/BHA543 (0.11%; detected in 10/11 donors) and A2/BNS1266 epitopes (0.01%) (FIG. 4c).

[5] = test system: CD8^+ T cells; parameters: species or system A24 mice; conditions: mouse
[6] = test system: CD8+ T cells; parameters: species or system transgenic HLA-A24 mice; conditions: mouse, in vivo
[7] = test system: memory CD8^+ T cells within PBMCs; format: cell-based, human
[8] = test system: CD8+ T Lymphocytes; format: cell-based, human

## SLNDDGLDNHTILL (Influenza B virus) [HA538-551]
[1]
  CD8+ T cell responses (IFNγ and TNF production): detected
[2]
  CD8^+ T cell response hierarchy of individual peptides: Subdominant responses

## SQFGQEHRL (Influenza B virus) [NS1266-274]
[1]
  CD8+ T cell responses (IFNγ and TNF production): CD8+ T cell responses were targeted
  CD8^+ T cell response, mean: 1.8 % of CD8^+ T cells
  CD8^+ T cell responses at the site of infection: targeted
[3]
  number of secondary IFNγ^+TNF^+ CD8^+ T cells in the spleen versus primary infection: ~27 fold
[2]; 10 days culture with 10 μM peptide and IL-2, re-stimulation 1 μM
  ICS responses in healthy A2:01+ donors: detected across multiple donors
[2]
  CD8^+ T cell response hierarchy of individual peptides: Subdominant responses
  CD8^+ T cell response, median: 0.035 % of CD8^+ T cells
  donors with response: single donor
[4]
  tetramer^+ of CD8^+ T cells, median: 0.01%

## SYINRTGTFEF (Influenza A virus) [PB1482-492]
[5]
  in vivo CD8^+ T cell responses: targeted

## SYLIRALTL (Influenza A virus) [PB1216-224]
[5]
  in vivo CD8^+ T cell responses: targeted

## TYHSYANNI (Influenza B virus) [NA213-221]
[6]
  immunogenicity (induction of IFNγ production in CD8+ T cells after peptide re-stimulation): immunogenic

## TYQWIIRNW (Influenza A virus) [PB2549-557]
[5]
  in vivo CD8^+ T cell responses: targeted

## TYQWVLKNL (Influenza B virus) [PB2550-558]
[6]
  immunogenicity (induction of IFNγ production in CD8+ T cells after peptide re-stimulation): immunogenic

## VLSQFGQEHRL (Influenza B virus) [NS1264-274]
[1]
  CD8+ T cell responses (IFNγ and TNF production): detected
  CD8^+ T cell responses at the site of infection: targeted
[2]
  CD8^+ T cell response hierarchy of individual peptides: Subdominant responses
  CD8^+ T cell response, median: 0.025 % of CD8^+ T cells
  donors with response: single donor

## VSDGGPNLY (Influenza A virus) [PB1591-599]
[7]
  memory CD8^+ T cell responses (IFN-γ production after peptide re-stimulation): robust memory CD8^+ T cell responses

## YFSPIRVTF (Influenza B virus) [NP165-173]
[6]
  immunogenicity (induction of IFNγ production in CD8+ T cells after peptide re-stimulation): immunogenic

## YLNPGNYSM (Influenza B virus) [M1132-140]
[2]
  CD8^+ T cell response hierarchy of individual peptides: Subdominant responses
  donors with response: single donor

## YYSTAASSL (Influenza B virus) [HA552-560]
[8]
  CD8+ T cell responses (IFNγ) after single peptide re-stimulation: immunogenic response
